# Measurements from patent US8916557B2, “Substituted 4-Aryl-N-phenyl-1,3,5-triazin-2-amines” (Bayer Intellectual Property GmbH, priority 2011, dated 2014).
# Experiments:
# [1] = tested on: B16F10 mouse melanoma cells; assay: Proliferation assay (crystal violet), B16F10; type: cell-based; details: B16-F10, read-out: Inhibition of B16F10 cell proliferation
# Experimental: (§1) Cultivated tumour cells (NCI-H460, human non-small cell lung carcinoma cells, ATCC HTB-177; DU 145, hormone-independent human prostate carcinoma cells, ATCC HTB-81; HeLa-MaTu, human cervical carcinoma cells, EPO-GmbH, Berlin; HeLa-MaTu-ADR, multidrug-resistant human cervical carcinoma cells, EPO-GmbH, Berlin; HeLa human cervical tumour cells, ATCC CCL-2; Caco-2 human colorectal carcinoma, ATCC HTB-37; B16F10 mouse melanoma cells, ATCC CRL-6475) were plated at a density of 5000 cells/well (DU145, HeLa-MaTu-ADR), 3000 cells/well (NCI-H460, HeLa-MaTu, HeLa), 1500 cells/well (Caco-2), or 1000 cells/well (B16F10) in a 96-well multititer plate in 200 μL of their respective growth medium supplemented 10% fetal calf serum. After 24 hours, the cells of one plate (zero-point plate) were stained with crystal violet (see below), while the medium of the other plates was replaced by fresh culture medium (200 μl), to which the test substances were added in various concentrations (0 μM, as well as in the range of 0.001-10 μM; the final concentration of the solvent dimethyl sulfoxide was 0.5%). The cells were incubated for 4 days in the presence of test substances. Cell proliferation was determined by staining the cells with crystal violet: the cells were fixed by adding 20 μl/measuring point of an 11% glutaric aldehyde solution for 15 minutes at room temperature. After three washing cycles of the fixed cells with water, the plates were dried at room temperature. The cells were stained by adding 100 μl/measuring point of a 0.1% crystal violet solution (pH 3.0). After three washing cycles of the stained cells with water, the plates were dried at room temperature. The dye was dissolved by adding 100 μl/measuring point of a 10% acetic acid solution. The extinction was determined by photometry at a wavelength of 595 nm. The change of cell number, in percent, was calculated by normalization of the measured values to the extinction values of the zero-point plate (=0%) and the extinction of the untreated (0 μm) cells (=100%). The IC50 values were determined by means of a 4 parameter fit.
# [2] = tested on: HeLa human cervical tumour cells; assay: Proliferation assay (crystal violet), HeLa; type: cell-based; details: read-out: Inhibition of HeLa cell proliferation
# [3] = tested on: DU 145, hormone-independent human prostate carcinoma cells; assay: Proliferation assay (crystal violet), DU 145; type: cell-based; details: DU145 cells, read-out: Inhibition of DU145 cell proliferation
# CDK2/CycE = target: T1, CDK2/CycE (Homo sapiens, UniProt P24941); assay: CDK2/CycE kinase assay (TR-FRET); type: biochemical; details: Method 2, 10 μM ATP
# T1 construct: GST; purchased ProQinase GmbH (Freiburg, Germany); host or cells: insect cells (Sf9)
# Method in brief: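 GST-CDK2/GST-CycE (Sf9-expressed, ~130 ng/ml) pre-incubated with compound 15 min, then reacted 25 min at 22 °C with 10 μM ATP and 0.75 μM biotinylated peptide in Tris pH 8.0. Phospho-substrate detected by TR-FRET (anti-pRb pSer807/811, Eu/XL665), 665/620 nm ratio.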
# [4] = tested on: NCI-H460, human non-small cell lung carcinoma cells; assay: Proliferation assay (crystal violet), NCI-H460; type: cell-based; details: read-out: Inhibition of H460 cell proliferation (activity range)
# Experimental: as §1
# [5] = tested on: HeLa-MaTu-ADR, multidrug-resistant human cervical carcinoma cells; assay: Proliferation assay (crystal violet), HeLa-MaTu-ADR; type: cell-based; details: read-out: Inhibition of HeLa/MaTu/ADR cell proliferation
# Experimental: as §1
IC50 [1] [nM],IC50 [2] [nM],IC50 [3] [nM],IC50 (CDK2/CycE) [nM],IC50 [4] [nM],IC50 [5] [nM],Compound
370,320,300,370,340,740,"Cc1cc(COc2cc(F)ccc2-c2ncnc(Nc3cccc(CS(C)(=O)=O)c3)n2)ccn1 [Example 87, 4-{4-Fluoro-2-[(2-methylpyridin-4-yl)methoxy]-phenyl}-N-{3-[(methylsulfonyl)methyl]phenyl}-1,3,5-triazin-2-amine]"
230,190,170,130,210,270,"CS(=O)(=O)Cc1cccc(Nc2ncnc(-c3ccc(F)cc3OCc3ccnc(Cl)c3)n2)c1 [Example 88, 4-{2-[(2-Chloropyridin-4-yl)methoxy]-4-fluorophenyl}-N-{3-[(methylsulfonyl)-methyl]phenyl}-1,3,5-triazin-2-amine]"
250,110,180,400,170,340,"CS(=O)(=O)Cc1cccc(Nc2ncnc(-c3ccc(F)cc3OCc3ccncc3)n2)c1 [Example 89, 4-[4-Fluoro-2-(pyridin-4-ylmethoxy)phenyl]-N-{3-[(methylsulfonyl)methyl]phenyl}-1,3,5-triazin-2-amine]"
320,110,280,680,60,330,"CS(=O)(=O)Cc1cccc(Nc2ncnc(-c3ccc(F)cc3OCc3ccc(C#N)cc3)n2)c1 [Example 90, 4-({5-Fluoro-2-[4-({3-[(methylsulfonyl)methyl]phenyl}amino)-1,3,5-triazin-2-yl]phenoxy}methyl)-benzonitrile]"
